Experiment [1] concerns the target BTK protein in human whole blood (Homo sapiens (Human), UniProt Q06187). Briefly: Btk protein in human whole blood MSD ELISA based assay (Btk degradation). The class given is cell-based. Conditions: human whole blood from healthy donors, 6 hours at 37° C., half maximal degradation concentration; read-out: hWB BTK DC50. The method, boiled down: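 Fresh healthy-donor human whole blood incubated 6 h at 37 °C with 8-point 1:4 dilutions from 3 μM (final 0.2% DMSO), in duplicate. Remaining BTK in lysates measured by MSD sandwich ELISA. DC50 by non-linear regression; Dmax as maximal degradation versus DMSO.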

The next experiment addresses BTK in mouse bone marrow (Mus musculus (Mouse), UniProt P35991). Put plainly: Mouse Bone Marrow Assay (MSD ELISA of BTK degradation in mouse bone marrow). In kind it is in vivo. Conditions: female C57BL/6J mice, single dose of Dose A, bone marrow collected after 24 hours, % remaining BTK in vehicle versus treated samples. The procedure: Female C57BL/6J mice (Jackson Laboratories) were used for this study. Compounds or vehicle/control were prepped with EtOH; PEG-400; Phosal 53 MCT (10:30:60, v/v). Four mice were tested per compound or vehicle/control. On Day 1, mice were administered a single dose of Dose A. On Day 2 (after 24 hours), tissue (bone marrow) was collected from one hind leg per mouse.
An MSD (Meso Scale Discovery) ELISA (enzyme-linked immunosorbent assay) based assay was used to determine BTK degradation in mouse bone marrow. The following materials and equipment were used: 10% NP40 solution (nonionic polyoxyethylene surfactant, ThermoFisher, cat no. 28324); protease inhibitor mini tablet (Roche, cat no. 05 892 970 001); PhosphoSTOP™ tablet (Roche, cat no. 04 906 837 001); Pierce™ BCA Protein Assay Kit (Thermofisher, Cat No. 23225); Precellys® 2 mL lysing tube with 2.8 mm beads (VWR, cat no. 10032-756); Bertin Precellys® 24/Cryolys ® cooling system; 96-well MSD streptavidin pre-coated plates (MSD, cat no. L15SA-1); MSD Blocker A (MSD, cat no. R93BA-4); capture antibody, biotinylated BTK mAb (BD Biosciences, cat no. 624008; custom order); primary detection antibody, BTK RpAb (rabbit polyclonal antibody, CST, cat no. 8547S, D3H5 clone); secondary detection antibody, anti-Rabbit-Sulfo-Tag (MSD, cat no. R32AB-1); read Buffer, 4× (MSD, cat no. R92TC-1); recombinant BTK protein (Thermofisher, cat no. PR5442A); MSD Tris Wash Buffer (10×) (MSD, cat no. R61TX-1); PBS (phosphate-buffered saline); deionized water (diH2O); Lysis Buffer [0.2% NP40 in PBS+Protease Inhibitor tablet (1 tablet/10 mL)+PhosphoSTOP tablet (1 tablet/10 mL)]; 3% MSD Blocker A [MSD Blocker A+450 mL diH2O+50 mL]; and 10× MSD Tris Wash Buffer.
Lysis buffer [(PBS+0.2% NP40+PI (protease inhibitor)+PhosphoSTOP)]was prepared and put on ice until it was fully cold. Ice cold lysis buffer […] was added to each Precellys® tube containing beads and bone marrow sample. Sample tubes were transferred into Precellys® machine and homogenized using 5000 rpm -2×20 seconds. The sample lysates were centrifuged at 14,000 rpm for 20 minutes at 4° C. after homogenizing.
The protein concentration was determined using Pierce™ BCA Protein Assay Kit following manufacturer's recommended protocol. The protein normalized working solution was prepared, using 30 μg protein per sample lysate for assay.
A 300 ng/ml working stock solution of recombinant BTK protein in lysis buffer was prepared, and the sample was serially diluted at 3-fold dilution (10-point assay, highest concentration was 300 ng/mL and lowest concentration was 0.015 ng/mL)
MSD plate coating: Coating antibody (biotinylated-BTK mAb) stock solution was prepared at 1 μg/mL in PBS buffer. 50 μL/well capture antibody (Biotinylated BTK mAb) solution was added, and the plates were shaken gently at ambient temperature for two hours. The plates were washed 3 times with 1× MSD Tris Wash Buffer in a plate washer (300 μL/well), and the plates were blocked with 3% MSD Blocker A (150 μL/well). The plates were incubated for an additional 1-2 hours at ambient temperature with gentle shaking. The plates were washed 3 times with 1× MSD wash buffer using plate washer. Bone marrow lysates (30 μg) at a final volume of 50 μL/well were added into the plates. The serially diluted standard samples were added to the same plates at a final volume of 50 μL/well. The plates were incubated overnight at 4° C. with gentle shaking.
The plates were washed three times with 1× MSD wash buffer (prepared from 10× concentration buffer) using plate washer. Primary detection antibody at 50 μL/well was added (BTK RpAb; 1:1000 dilution in 1% MSD Blocker A). The plates were incubated for two hours at ambient temperature with gentle shaking. The plates were washed three times with 1× MSD wash buffer using plate washer. Anti-Rabbit-SULFO-TAG secondary antibodies (50 μl/well) were added, 1:500 diluted in 1% MSD Blocker A, and the plates were incubated for one to two hours at ambient temperature. […]
A general note: In an ELISA, binding on a coated surface is turned into a signal by an enzyme label.

The structures appear in SMILES notation.

BTK in mouse bone marrow, sequence (P35991 whole entry): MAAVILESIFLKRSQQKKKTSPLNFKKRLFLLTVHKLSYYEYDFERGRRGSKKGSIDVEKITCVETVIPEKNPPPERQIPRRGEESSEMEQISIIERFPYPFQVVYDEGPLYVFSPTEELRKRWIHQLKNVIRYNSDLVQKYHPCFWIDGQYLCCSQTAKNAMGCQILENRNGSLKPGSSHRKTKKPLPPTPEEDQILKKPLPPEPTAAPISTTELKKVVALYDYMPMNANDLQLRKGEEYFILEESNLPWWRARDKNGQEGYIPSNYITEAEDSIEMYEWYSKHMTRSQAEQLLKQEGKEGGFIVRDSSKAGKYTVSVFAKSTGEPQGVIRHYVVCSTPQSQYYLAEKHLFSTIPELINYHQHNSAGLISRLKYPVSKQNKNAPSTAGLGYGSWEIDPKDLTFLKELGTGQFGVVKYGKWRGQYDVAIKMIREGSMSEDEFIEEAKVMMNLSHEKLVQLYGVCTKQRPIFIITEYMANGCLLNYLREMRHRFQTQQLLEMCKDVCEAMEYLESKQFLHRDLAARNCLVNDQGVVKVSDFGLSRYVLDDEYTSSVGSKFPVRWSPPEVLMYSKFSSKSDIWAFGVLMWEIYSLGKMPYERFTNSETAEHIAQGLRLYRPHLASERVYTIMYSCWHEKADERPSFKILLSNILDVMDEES
BTK protein in human whole blood, sequence (Q06187 whole entry): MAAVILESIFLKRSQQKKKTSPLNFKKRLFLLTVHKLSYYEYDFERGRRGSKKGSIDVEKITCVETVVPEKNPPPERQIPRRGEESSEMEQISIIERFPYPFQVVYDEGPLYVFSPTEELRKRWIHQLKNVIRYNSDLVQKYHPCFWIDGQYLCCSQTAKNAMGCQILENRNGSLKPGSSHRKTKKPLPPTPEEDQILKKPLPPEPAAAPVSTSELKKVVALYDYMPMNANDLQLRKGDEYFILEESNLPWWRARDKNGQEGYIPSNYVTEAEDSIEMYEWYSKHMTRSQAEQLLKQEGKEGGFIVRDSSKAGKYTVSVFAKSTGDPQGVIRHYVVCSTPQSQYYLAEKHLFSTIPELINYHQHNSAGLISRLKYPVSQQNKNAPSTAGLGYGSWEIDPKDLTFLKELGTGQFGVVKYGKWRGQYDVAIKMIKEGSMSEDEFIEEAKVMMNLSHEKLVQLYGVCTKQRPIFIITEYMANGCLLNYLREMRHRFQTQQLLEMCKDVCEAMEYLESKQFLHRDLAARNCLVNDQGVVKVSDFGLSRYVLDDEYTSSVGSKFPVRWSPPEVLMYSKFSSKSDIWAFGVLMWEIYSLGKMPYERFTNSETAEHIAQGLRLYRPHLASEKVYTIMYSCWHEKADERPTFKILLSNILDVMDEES

Take `Cc1cc(-c2cc(Nc3ccc(N4CCN(CCc5ccc(N6CCC(=O)NC6=O)cc5)CC4)cn3)ncn2)c(F)cc1[C@@H](C)NC(=O)c1nc(C(C)(C)C)no1` [Example 12, 3-tert-butyl-N-{(1R)-1-[4-(6-{[5-(4-{2-[4-(2,4-dioxo-1,3-diazinan-1-yl)phenyl]ethyl}piperazin-1-yl)pyridin-2-yl]amino}pyrimidin-4-yl)-5-fluoro-2-methylphenyl]ethyl}-1,2,4-oxadiazole-5-carboxamide]: the DC50 in experiment [1] came out at 2.27 nM. Further, the “Mouse Bone Marrow (%), % remaining BTK” value at BTK in mouse bone marrow stood at 17%.

On to `Cc1cc(-c2cc(Nc3ccc(N4CCN(CCc5ccc(N6CCC(=O)NC6=O)cc5)C[C@@H]4C(C)C)cn3)ncn2)ccc1[C@@H](C)NC(=O)c1nc(C(C)(C)C)no1` [Example 13, 3-tert-butyl-N-[(1R)-1-{4-[6-({5-[(2S)-4-{2-[4-(2,4-dioxo-1,3-diazinan-1-yl)phenyl]ethyl}-2-(propan-2-yl)piperazin-1-yl]pyridin-2-yl}amino)pyrimidin-4-yl]-2-methylphenyl}ethyl]-1,2,4-oxadiazole-5-carboxamide], for which, in experiment [1], the DC50 worked out at 17.3 nM. For the same compound, the “Mouse Bone Marrow (%), % remaining BTK” value on BTK in mouse bone marrow stood at 26%.

In the case of `C[C@@H](NC(=O)c1nc(C(C)(C)C)no1)c1ccc(-c2cc(Nc3ccc(N4CCN(CCc5ccc(N6CCC(=O)NC6=O)cc5)C[C@@H]4C)cn3)ncn2)cc1Cl` [Example 14, 3-tert-butyl-N-[(1R)-1-{2-chloro-4-[6-({5-[(2S)-4-{2-[4-(2,4-dioxo-1,3-diazinan-1-yl)phenyl]ethyl}-2-methylpiperazin-1-yl]pyridin-2-yl}amino)pyrimidin-4-yl]phenyl}ethyl]-1,2,4-oxadiazole-5-carboxamide], the 50% degradation concentration (DC50) in experiment [1] stood at 7.91 nM. Besides, at BTK in mouse bone marrow, the “Mouse Bone Marrow (%), % remaining BTK” value came to 16%.

Regarding `Cc1cc(-c2cc(Nc3ccc(N4CCN(CCc5ccc(N6CCC(=O)NC6=O)cc5)C[C@@H]4C)cc3)ncn2)ccc1[C@@H](C)NC(=O)c1nc(C(C)(C)C)no1` [Example 18], the half-maximal degradation concentration (DC50) in experiment [1] turned out to be 15.6 nM. Besides, the “Mouse Bone Marrow (%), % remaining BTK” value at BTK in mouse bone marrow was determined as 25%.

As to `Cc1cc(-c2cc(Nc3ccc(CCN4CCN(c5ccc(N6CCC(=O)NC6=O)cc5)CC4)cn3)ncn2)ccc1[C@@H](C)NC(=O)c1nc(C(C)(C)C)no1` [Example 19], in experiment [1], the DC50 worked out at 3 nM. Moreover, at BTK in mouse bone marrow, the “Mouse Bone Marrow (%), % remaining BTK” value is recorded as 51%.

What is called DC50 is the midpoint of the concentration-degradation curve.

The values are drawn from patent US20240109877A1, “PYRIMIDINES FOR DEGRADING BRUTON'S TYROSINE KINASE” (AbbVie Inc., priority 2022, published 2024).
